{
  "source": "patent US11541057B2",
  "about": "“Thienopyrimidinone NMDA receptor modulators and uses thereof” (Cadent Therapeutics, Inc., priority 2015, dated 2023)",
  "data": [
    {"target": "T1, NMDA receptor GRIN1/GRIN2B (NR2B) expressed in HEK293 cells (Homo sapiens, UniProt Q13224)", "T1 construct": "host or cells: HEK293", "T1 sequence (Q13224 27-1484, other chains not shown)": "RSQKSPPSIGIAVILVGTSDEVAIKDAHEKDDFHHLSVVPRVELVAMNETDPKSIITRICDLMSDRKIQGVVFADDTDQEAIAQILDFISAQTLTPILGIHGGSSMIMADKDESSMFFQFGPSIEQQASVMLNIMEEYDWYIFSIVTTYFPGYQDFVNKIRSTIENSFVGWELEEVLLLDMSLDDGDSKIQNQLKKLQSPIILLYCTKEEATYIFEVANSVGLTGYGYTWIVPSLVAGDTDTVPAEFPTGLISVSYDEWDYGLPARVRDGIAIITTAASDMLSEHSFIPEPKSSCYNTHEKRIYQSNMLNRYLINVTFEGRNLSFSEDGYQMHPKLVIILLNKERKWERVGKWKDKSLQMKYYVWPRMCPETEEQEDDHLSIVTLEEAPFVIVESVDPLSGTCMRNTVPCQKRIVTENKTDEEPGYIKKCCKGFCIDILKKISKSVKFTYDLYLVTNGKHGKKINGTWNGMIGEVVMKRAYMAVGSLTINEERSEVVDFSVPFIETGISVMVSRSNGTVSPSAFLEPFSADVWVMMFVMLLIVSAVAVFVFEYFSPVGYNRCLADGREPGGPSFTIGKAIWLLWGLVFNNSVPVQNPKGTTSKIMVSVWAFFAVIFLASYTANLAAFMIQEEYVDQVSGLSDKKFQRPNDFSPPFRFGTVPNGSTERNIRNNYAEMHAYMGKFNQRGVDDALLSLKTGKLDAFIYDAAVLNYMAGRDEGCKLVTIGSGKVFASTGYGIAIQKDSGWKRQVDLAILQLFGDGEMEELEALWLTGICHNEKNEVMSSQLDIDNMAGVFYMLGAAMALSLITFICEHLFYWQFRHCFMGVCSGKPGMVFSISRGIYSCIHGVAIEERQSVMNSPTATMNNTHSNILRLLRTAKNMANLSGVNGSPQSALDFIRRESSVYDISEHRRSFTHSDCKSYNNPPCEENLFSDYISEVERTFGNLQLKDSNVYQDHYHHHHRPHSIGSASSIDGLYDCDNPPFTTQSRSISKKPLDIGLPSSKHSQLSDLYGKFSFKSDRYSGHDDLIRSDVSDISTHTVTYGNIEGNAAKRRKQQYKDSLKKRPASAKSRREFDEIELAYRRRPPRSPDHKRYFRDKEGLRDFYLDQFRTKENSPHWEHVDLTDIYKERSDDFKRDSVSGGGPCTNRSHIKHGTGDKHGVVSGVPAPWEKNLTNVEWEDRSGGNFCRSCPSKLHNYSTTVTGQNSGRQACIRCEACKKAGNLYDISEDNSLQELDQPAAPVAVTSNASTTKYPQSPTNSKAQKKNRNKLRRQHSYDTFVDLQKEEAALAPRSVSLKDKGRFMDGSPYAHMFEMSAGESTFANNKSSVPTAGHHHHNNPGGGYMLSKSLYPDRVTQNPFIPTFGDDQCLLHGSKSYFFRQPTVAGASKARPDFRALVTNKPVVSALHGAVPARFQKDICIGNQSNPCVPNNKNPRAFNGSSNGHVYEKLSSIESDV", "assay": "Reversal of Ro 25-6981-mediated suppression of the Ca2+ response (fluo-8 fluorescence, FDSS) in HEK293 cells expressing GRIN1 and GRIN2B", "assay_type": "cell-based", "conditions": "% reversal=100*(R−Rneg)/(Rpos−Rneg) of Ro 25-6981 suppression of co-agonist (glutamate/glycine) Ca2+ response, 10 min pre-incubation, compound concentration not given", "protocol": "HEK293 cells with constructs conferring stable expression of the GRIN1 gene and tetracycline-inducible expression of the GRIN2B gene (Chantest, Cleveland, Ohio) are grown to ˜75% confluence in tissue culture flasks at 37° C., 5% CO2. NR2B expression is induced by overnight incubation with 0.3-0.4 μg/ml tetracycline in the presence of 2.5 mM ARL-15896 at 37° C., followed by moving to 30° C. for 3-5 hours. Cells are next harvested using TripleExpress™ (Life Technologies, Carlsbad, Calif.) according to the manufacturer's instructions, first removing culture medium, rinsing with Dulbecco's phosphate buffered saline (Ca^2+ and Mg^2+-free), and then adding the TripleExpress™ reagent. Harvested cells are spun down, washed twice in Ca^2+- and Mg^2+-free Hank's Balanced Salt Solution with 20 mM HEPES and 10 mM glucose, pH 7.4 (HHnoCa solution), and counted with viability assessed using Trypan Blue. Cells are loaded with fluo-8 Ca^2+-sensitive dye in HHnoCa solution according to the manufacturer's directions (AAT Bioquest, Sunnyvale, Calif.), incubating at 37° C. for 20 minutes followed by 25 minutes at 22-25° C. After a wash in HHnoCa to remove extracellular dye, cells are resuspended in HHnoCa and plated at […] cells per well in a volume of 25 μl/well in 384 well black-wall, clear bottom plates (Hamamatsu, Middlesex, N.J.). Plates are then centrifuged to create a monolayer in the wells and stored in the dark until used.\nPrior to analysis, compound plates are prepared with each compound at 6× the final desired concentration. From stock solutions at 10 mM in 100% DMSO, compounds are spotted in the desired amounts using an ECHO liquid handler (Labcyte, Sunnyvale, Calif.) into wells of a 384-well plate and then diluted with 50 μl of HHnoCa containing 750 nM Ro 25-6981 and 120 μM 5,7-dichlorokynurenic acid (both purchased from Tocris Bioscience (Bristol, England) and maintained as 10 mM stock solutions in 100% DMSO). To insure complete compound dissolution, these plates are then placed in an orbital shaker for at least one hour. Also prepared prior to the assay is a co-agonist plate containing HHnoCa with 240 μM glutamate, 2.4 mM glycine, and 7.2 mM CaCl2, which is 2.4× the desired final concentration of each reagent. Both the compound plate and co-agonist plate are 384-well polypropylene plates from Thermo Fisher Scientific, Waltham, Mass.\nThe assay is performed by first adding 10 μl solution from each well of the compound plate described above to the cell plate using a CyBiWell liquid handler (Analytik Jena AG, Jena, Germany), followed by 10 minutes pre-incubation in the dark. Cell plates are then loaded onto a Hamamatsu FDSS 6000 plate reader. After a 30-second baseline, 25 μl is added to each well from the co-agonist plate, and the fluorescence signal is recorded for another 2 minutes. FDSS software applies shading and autofluorescence correction, and resultant raw fluorescence measurements are exported in the form of a fluorescence ratio for each well to its own reading at time zero in the experiment. In each plate, negative control wells consist of wells where Ro 25-6981 and 5,7 dichlorokynurenic acid are present and co-agonist is applied in the absence of any added assay compound. Under these conditions, the Ca^2+ response to co-agonist is suppressed. Positive control wells also present in each plate contain 5,7 dichlorokynurenic acid but no Ro 25-6981, so that co-agonist addition results in a large Ca^2+ response. Compounds tested are evaluated on the basis of their ability to reverse the suppression of the Ca^2+ response mediated by Ro 25-6981, which is quantified as % reversal=100*(R−Rneg)/(Rpos−Rneg) where R is the fluorescence ratio for the test compound at the end of the experiment and Rneg and Rpos are the end ratios for the negative and positive controls, respectively. […]", "units": {"Response Recovered (%)": "%"}, "values": [
      {"smiles": "O=C(Cn1cnc2scc(-c3cnc(Cl)c(C(F)(F)F)c3)c2c1=O)N1CCC(F)C1", "note": "(stereo not drawn) [Example 70, 5-[6-chloro-5-(trifluoromethyl)pyridin-3-yl]-3-[2-(3-fluoropyrrolidin-1-yl)-2-oxoethyl]-3H,4H-thieno[2,3-d]pyrimidin-4-one]", "Response Recovered (%)": 22},
      {"smiles": "O=C(Cn1cnc2scc(-c3ccc(Cl)c(F)c3)c2c1=O)N1CCC(F)C1", "note": "(stereo not drawn) [Example 59, 5-(4-chloro-3-fluorophenyl)-3-[2-(3-fluoropyrrolidin-1-yl)-2-oxoethyl]-3H,4H-thieno[2,3-d]pyrimidin-4-one]", "Response Recovered (%)": 43},
      {"smiles": "O=C(Cn1cnc2scc(-c3ccc(Cl)cc3)c2c1=O)N1CCC(F)(F)CC1", "note": "[Example 14, 5-(4-chlorophenyl)-3-[2-(4,4-difluoropiperidin-1-yl)-2-oxoethyl]-3H,4H-thieno└2,3-d┘pyrimidin-4-one]", "Response Recovered (%)": 2},
      {"smiles": "O=C(Cn1cnc2scc(-c3ccc(Cl)cc3)c2c1=O)N1CCOCC1", "note": "[Example 4, 5-(4-chlorophenyl)-3-[2-(morpholin-4-yl)-2-oxoethyl]-3H,4H-thieno└2,3-d┘pyrimidin-4-one]", "Response Recovered (%)": 3},
      {"smiles": "O=C(Nn1cnc2scc(-c3ccc(F)c(Cl)c3)c2c1=O)N1CCCC1", "note": "[Example 90]", "Response Recovered (%)": 10},
      {"smiles": "O=C(Cn1cnc2sc(-c3ccc(Cl)cc3)cc2c1=O)N1CCOCC1", "note": "[Example 77, 6-(4-chlorophenyl)-3-[2-(morpholin-4-yl)-2-oxoethyl]-3H,4H-thieno[2,3-d]pyrimidin-4-one]", "Response Recovered (%)": 18},
      {"smiles": "O=C(Cn1cnc2scc(-c3ccc(F)c(Cl)c3)c2c1=O)N1CCC(F)C1", "note": "(stereo not drawn) [Example 58, 5-(3-chloro-4-fluorophenyl)-3-[2-(3-fluoropyrrolidin-1-yl)-2-oxoethyl]-3H,4H-thieno[2,3-d]pyrimidin-4-one]", "Response Recovered (%)": 65},
      {"smiles": "O=C(On1cnc2scc(-c3ccc(F)c(Cl)c3)c2c1=O)N1CCC(F)C1", "note": "(stereo not drawn) [Example 88, 5-(3-chloro-4-fluorophenyl)-4-oxo-3H,4H-thieno[2,3-d]pyrimidin-3-yl 3-fluoropyrrolidine-1-carboxylate]", "Response Recovered (%)": 83},
      {"smiles": "O=C(Nn1cnc2scc(-c3ccc(Cl)c(C(F)(F)F)c3)c2c1=O)N1CCCC1", "note": "[Example 89, N-(5-(4-chloro-3-(trifluoromethyl)phenyl)-4-oxothieno[2,3-d]pyrimidin-3(4H)-yl)pyrrolidine-1-carboxamide]", "Response Recovered (%)": 29},
      {"smiles": "O=C(Cn1cnc2scc(-c3ccc(C(F)(F)F)cc3F)c2c1=O)N1CCCC1", "note": "[Example 38]", "Response Recovered (%)": 10},
      {"smiles": "Cc1sc2ncn(CC(=O)N3CCCC3)c(=O)c2c1-c1ccc(F)c(Cl)c1", "note": "[Example 83, 5-(3-chloro-4-fluorophenyl)-6-methyl-3-[2-oxo-2-(pyrrolidin-1-yl)ethyl]-3H,4H-thieno[2,3-d]pyrimidin-4-one]", "Response Recovered (%)": 45},
      {"smiles": "O=c1c2c(-c3ccc(Cl)c(C(F)(F)F)c3)csc2ncn1/N=C/N1CCCC1", "note": "[Example 94, (E)-5-(4-chloro-3-(trifluoromethyl)phenyl)-3-((pyrrolidin-1-ylmethylene)amino)thieno[2,3-d]pyrimidin-4(3H)-one]", "Response Recovered (%)": 18},
      {"smiles": "O=C(Cn1cnc2scc(-c3ccc(Cl)cc3)c2c1=O)NC1CC1", "note": "[Example 5, 2-[5-(4-chlorophenyl)-4-oxo-3H,4H-thieno[2,3-d]pyrimidin-3-yl]-N-cyclopropylacetamide]", "Response Recovered (%)": 2},
      {"smiles": "O=C(Cn1cnc2scc(-c3cccc(F)c3)c2c1=O)N1CCCC1", "note": "[Example 31, 5-(3-fluorophenyl)-3-[2-oxo-2-(pyrrolidin-1-yl)ethyl]-3H,4H-thieno└2,3-d┘pyrimidin-4-one]", "Response Recovered (%)": 3},
      {"smiles": "O=C(Cn1cnc2scc(-c3ccc(Cl)c(Cl)c3)c2c1=O)N1CC[C@H](F)C1", "note": "[Example 69, 5-(3,4-dichlorophenyl)-3-{2-[(3S)-3-fluoropyrrolidin-1-yl]-2-oxoethyl}-3H,4H-thieno[2,3-d]pyrimidin-4-one]", "Response Recovered (%)": 94}
    ]}
  ]
}
